Converted amounts (≈) assume the structure as drawn.
Assays:
[1] = Inhibition of bovine brain tubulin polymerization incubated for 30 mins by turbidimetric assay; type: tissue-based, Bos taurus
HeLa = experiment: Antiproliferative activity against human HeLa cells assessed as inhibition of cell growth after 72 hrs by XTT assay; type: functional, cell-based
HL-60 = experiment: Antiproliferative activity against human HL-60 cells assessed as inhibition of cell growth after 72 hrs by XTT assay; type: functional, cell-based; details: HL-60, 72 h
HT-29 = experiment: Antiproliferative activity against human HT-29 cells assessed as inhibition of cell growth after 72 hrs by XTT assay; type: functional, cell-based; details: HT-29, 72 h
[2] = Aqueous solubility of the compound in pH 7.0 phosphate buffer at 2 mg incubated for 72 hrs by shake flask method; type: physicochemical

## COc1ccc(C(=NO)c2cc(SC)nc(SC)c2)cc1
[1]
  IC50: 3 µM
HeLa
  IC50: 0.457 µM
HL-60
  IC50: 0.299 µM
HT-29
  IC50: 0.292 µM

## C=C(c1ccc(OC)cc1)c1cc(SC)nc(SC)c1
[1]
  IC50: 2 µM
HeLa
  IC50: 0.399 µM
[2]
  solubility thermodynamic at 72 h: 35.7 µg/mL (≈ 118 µM)
HL-60
  IC50: 0.306 µM
HT-29
  IC50: 0.55 µM

## C=C(c1ccc(OC)cc1)c1cc(Cl)nc(SC)c1
[1]
  IC50: 1.5 µM
HeLa
  IC50: 0.628 µM
[2]
  solubility thermodynamic at 72 h: 48.9 µg/mL (≈ 168 µM)
HL-60
  IC50: 0.464 µM
HT-29
  IC50: 0.485 µM

## C=C(c1cc(SC)nc(SC)c1)c1ccc2c(ccn2C)c1
[1]
  IC50: 1.1 µM
HeLa
  IC50: 0.52 µM
HL-60
  IC50: 0.717 µM
HT-29
  IC50: 0.249 µM

## CSc1cc(C(O)c2ccc3c(ccn3C)c2)cc(SC)n1 (stereo unspecified)
[1]
  IC50: > 5 µM
HeLa
  IC50: ≥ 10 µM
HL-60
  IC50: ≥ 10 µM
HT-29
  IC50: ≥ 0.01 µM

## CSc1cc(C(=NO)c2cccc(N(C)C)c2)cc(SC)n1
[1]
  IC50: > 5 µM
HeLa
  IC50: ≥ 0.01 µM
[2]
  solubility thermodynamic at 72 h: 14.7 µg/mL (≈ 44.1 µM)
HL-60
  IC50: ≥ 0.01 µM
HT-29
  IC50: ≥ 0.01 µM

## CSc1cc(C(O)c2ccc(N(C)C)cc2)cc(SC)n1 (stereo unspecified)
[1]
  IC50: > 5 µM
HeLa
  IC50: ≥ 0.01 µM
HL-60
  IC50: ≥ 0.01 µM
HT-29
  IC50: ≥ 0.01 µM

## CSc1cc(C(=O)c2cccc(N(C)C)c2)cc(SC)n1
[1]
  IC50: > 5 µM
HeLa
  IC50: ≥ 0.01 µM
[2]
  solubility thermodynamic at 72 h: 1.3 µg/mL (≈ 4.08 µM)
HL-60
  IC50: ≥ 0.01 µM
HT-29
  IC50: ≥ 0.01 µM

## C=C(c1cc(Cl)nc(SC)c1)c1ccc2c(c1)c(C#N)cn2C
[1]
  IC50: 0.6 µM
HeLa
  IC50: 0.158 µM
[2]
  solubility thermodynamic at 72 h: 3.2 µg/mL (≈ 9.42 µM)
HL-60
  IC50: 0.074 µM
HT-29
  IC50: 0.278 µM

## C=C(c1cc(Cl)nc(SC)c1)c1ccc2c(c1)c(C(=O)O)cn2C
[1]
  IC50: > 5 µM
HeLa
  IC50: ≥ 0.01 µM
HL-60
  IC50: ≥ 0.01 µM
HT-29
  IC50: ≥ 0.01 µM

## C=C(c1cc(SC)nc(SC)c1)c1ccc2c(c1)c(C(=O)O)cn2C
[1]
  IC50: 4.7 µM
HeLa
  IC50: ≥ 0.01 µM
[2]
  solubility thermodynamic at 72 h: 103 µg/mL (≈ 277 µM)
HL-60
  IC50: ≥ 0.01 µM
HT-29
  IC50: ≥ 0.01 µM

## CSc1cc(C(=O)c2ccc3ccccc3c2)cc(SC)n1
[1]
  IC50: > 5 µM
HeLa
  IC50: ≥ 0.01 µM
HL-60
  IC50: ≥ 0.01 µM
HT-29
  IC50: ≥ 0.01 µM

## CSc1cc(C(=O)c2ccc3c(ccn3C)c2)cc(SC)n1
[1]
  IC50: 1.7 µM
HeLa
  IC50: 0.233 µM
HL-60
  IC50: 0.222 µM
HT-29
  IC50: 0.549 µM

## C=C(c1cccc(N(C)C)c1)c1cc(SC)nc(SC)c1
[1]
  IC50: > 5 µM
HeLa
  IC50: ≥ 0.01 µM
[2]
  solubility thermodynamic at 72 h: 2.4 µg/mL (≈ 7.58 µM)
HL-60
  IC50: ≥ 0.01 µM
HT-29
  IC50: ≥ 0.01 µM

## CSc1cc(C(=O)c2ccc(N(C)C)cc2)cc(SC)n1
[1]
  IC50: > 5 µM
HeLa
  IC50: 0.652 µM
[2]
  solubility thermodynamic at 72 h: 1 µg/mL (≈ 3.14 µM)
HL-60
  IC50: 0.435 µM
HT-29
  IC50: 0.787 µM

## COc1ccc(S(=O)(=O)Nc2cccnc2Nc2ccc(O)cc2)cc1 [ABT-751]
[1]
  IC50: 4 µM
HeLa
  IC50: 0.388 µM
HT-29
  IC50: 0.514 µM

## COc1ccc(/C=C\c2cc(OC)c(OC)c(OC)c2)cc1O [COMBRETASTATIN A4]
[1]
  IC50: 2.8 µM
HT-29
  IC50: 0.305 µM

## CSc1cc(C(=O)c2ccc3c(c2)c(C=O)cn3C)cc(Cl)n1
[1]
  IC50: > 5 µM
HeLa
  IC50: ≥ 0.01 µM
HL-60
  IC50: ≥ 0.01 µM
HT-29
  IC50: ≥ 0.01 µM

## CSc1cc(C(=NO)c2ccc3ccccc3c2)cc(SC)n1
[1]
  IC50: > 5 µM
HeLa
  IC50: ≥ 0.01 µM
HL-60
  IC50: ≥ 0.01 µM
HT-29
  IC50: ≥ 0.01 µM

## CSc1cc(C(=O)c2ccc(N(C)C)nc2)cc(SC)n1
[1]
  IC50: > 5 µM
HeLa
  IC50: ≥ 0.01 µM
[2]
  solubility thermodynamic at 72 h: 47.1 µg/mL (≈ 147 µM)
HL-60
  IC50: ≥ 0.01 µM
HT-29
  IC50: ≥ 0.01 µM
